The values that follow come from PubChem BioAssay (NCI).

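Cells were grown in 96-well plates and exposed to each compound for 48 hours at five concentrations; endpoints were interpolated linearly between bracketing concentrations, or set to the highest concentration if not reached. The concentration for full growth arrest is given as TGI.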

Some test systems named below: BT-549 breast; MALME-3M melanoma; 786-0 renal; MDA-N; OVCAR-8 ovarian; SW-620 colon; NCI-H23 lung; ACHN renal; CCRF-CEM leukemia; LOX IMVI melanoma; TK-10 renal; IGROV1 ovarian; SK-MEL-28 melanoma; HCT-15 colon; EKVX NSCLC; SN12C renal; HCC-2998 colon; SK-MEL-2 melanoma; CAKI-1 renal; SK-OV-3 ovarian.
Common to all, as to assay: inhibition of tumour cell growth, NCI panel, 48 h

In the case of `CN(C)Cc1cc(C=O)cc(CN(C)C)c1O`, the TGI with BT-549 breast, in the assay on MALME-3M melanoma, in the assay with 786-0 renal, with MDA-N, with OVCAR-8 ovarian and in the assay on SW-620 colon was more than 100 µM each time. The TGI in the assay on NCI-H23 lung was 67.4 µM; with ACHN renal, more than 100 µM; in the assay on CCRF-CEM leukemia, more than 100 µM; in the assay with LOX IMVI melanoma, more than 100 µM; in the assay with TK-10 renal, more than 100 µM; in the assay with IGROV1 ovarian, more than 100 µM. The TGI in the assay with SK-MEL-28 melanoma, in the assay with HCT-15 colon, with EKVX NSCLC, in the assay on SN12C renal and in the assay with HCC-2998 colon was more than 100 µM in each case.
For the molecule `Clc1ccc(-c2ccc(-c3nn4c(CNc5ccccc5)nnc4s3)o2)c(Cl)c1`, the TGI in the assay with BT-549 breast, with MALME-3M melanoma, in the assay on 786-0 renal, in the assay with MDA-N, with OVCAR-8 ovarian and in the assay on SK-MEL-2 melanoma was more than 100 µM in each case. Further, the TGI in the assay on CAKI-1 renal, with SW-620 colon, in the assay with NCI-H23 lung, with ACHN renal, in the assay on CCRF-CEM leukemia and with LOX IMVI melanoma was more than 100 µM throughout. Also, the TGI in the assay on TK-10 renal, in the assay with IGROV1 ovarian, with SK-MEL-28 melanoma, in the assay on HCT-15 colon, in the assay on EKVX NSCLC and with SN12C renal was more than 100 µM throughout. This molecule registered a TGI in the assay on SK-OV-3 ovarian of more than 100 µM.
Consider `Cc1ccc(-c2nc(-c3cnccn3)n(C3OC(CO)C(O)C(O)C3O)n2)cc1` (stereo not given), for which the TGI in the assay on BT-549 breast, in the assay with 786-0 renal, in the assay on MDA-N, in the assay on OVCAR-8 ovarian, with SW-620 colon and with NCI-H23 lung was more than 100 µM throughout. The TGI in the assay on CCRF-CEM leukemia, in the assay on LOX IMVI melanoma, in the assay with TK-10 renal, in the assay with IGROV1 ovarian, in the assay with SK-MEL-28 melanoma and with HCT-15 colon was more than 100 µM throughout. The TGI with EKVX NSCLC, in the assay on SN12C renal and in the assay on HCC-2998 colon was more than 100 µM throughout.
For `COC(=O)CSC(=S)Nc1nnc(NC(=S)SCOC(C)=O)n1C(=S)SCC(=O)OC`, the TGI in the assay with BT-549 breast, in the assay with 786-0 renal, in the assay with MDA-N, in the assay with CAKI-1 renal, in the assay on SW-620 colon and in the assay on NCI-H23 lung was more than 100 µM each time. Moreover, the TGI in the assay on ACHN renal, with CCRF-CEM leukemia, in the assay with LOX IMVI melanoma, in the assay on IGROV1 ovarian, in the assay on SK-MEL-28 melanoma and with HCT-15 colon was more than 100 µM throughout. In addition, the TGI in the assay on EKVX NSCLC, with SN12C renal and with HCC-2998 colon was more than 100 µM in each case.
Regarding `COC(=O)Nc1nc2ccc(NC(=O)c3cccs3)cc2[nH]1`, the TGI in the assay with BT-549 breast is more than 100 µM; in the assay on MALME-3M melanoma, 99.5 µM; in the assay with 786-0 renal it was more than 100 µM; with MDA-N, 36.7 µM; in the assay on OVCAR-8 ovarian, more than 100 µM; in the assay with SK-MEL-2 melanoma, more than 100 µM. For the same molecule, the TGI in the assay on CAKI-1 renal, in the assay with SW-620 colon, in the assay on NCI-H23 lung, with ACHN renal, with CCRF-CEM leukemia and in the assay with LOX IMVI melanoma was more than 100 µM each time. Further, the TGI with TK-10 renal is more than 100 µM; in the assay with IGROV1 ovarian, 14.4 µM; in the assay on SK-MEL-28 melanoma, more than 100 µM; in the assay with HCT-15 colon, more than 100 µM; in the assay on EKVX NSCLC, more than 100 µM; with SN12C renal, more than 100 µM. The same molecule registered a TGI in the assay on SK-OV-3 ovarian of more than 100 µM.
For `Cc1ccc(/C=C2\Cc3cccc(C)c3C2=O)c(C(=O)O)c1`, the TGI was more than 100 µM in the assay on BT-549 breast; more than 100 µM with MALME-3M melanoma; more than 100 µM in the assay with 786-0 renal; more than 100 µM in the assay on MDA-N; more than 100 µM in the assay with OVCAR-8 ovarian; 48.8 µM in the assay with CAKI-1 renal. Also, the TGI in the assay on SW-620 colon was more than 100 µM; in the assay with NCI-H23 lung, more than 100 µM; with ACHN renal it was 88.1 µM; in the assay on CCRF-CEM leukemia, more than 100 µM; in the assay on LOX IMVI melanoma, more than 100 µM; in the assay with TK-10 renal, more than 100 µM. Besides, the TGI in the assay with IGROV1 ovarian, with SK-MEL-28 melanoma, in the assay on HCT-15 colon, in the assay on EKVX NSCLC, in the assay with SN12C renal and with HCC-2998 colon was more than 100 µM in each case.
Regarding `Clc1cc(Br)c2c3c(c(Br)cc(Cl)c13)C(Br)=C2Br`, the TGI was 78 µM in the assay on BT-549 breast; more than 100 µM with MALME-3M melanoma; 47.7 µM in the assay on 786-0 renal; more than 100 µM in the assay on MDA-N; 93 µM with OVCAR-8 ovarian; more than 100 µM in the assay with SK-MEL-2 melanoma. Also, the TGI with SW-620 colon is more than 100 µM; in the assay on ACHN renal, 36.3 µM; with LOX IMVI melanoma, 32.2 µM; with TK-10 renal, 46.6 µM; in the assay on IGROV1 ovarian, 36.5 µM; in the assay with SK-MEL-28 melanoma, more than 100 µM. Further, the TGI in the assay with HCT-15 colon is 37.6 µM; in the assay with EKVX NSCLC, more than 100 µM; in the assay on SN12C renal it was 44.7 µM; in the assay on SK-OV-3 ovarian it was more than 100 µM; in the assay on HCC-2998 colon, 38.6 µM.
